Reference: ChEMBL document CHEMBL5726883, “Pyrazines as modulators of GPR6” (2019)

Target: G-protein coupled receptor 6 (Homo sapiens, UniProt P46095)
Experiment: A.1 Inhibition of cAMP Activity of GPR6 In Vitro Assay: This cell based assay measures the ability of compounds to inhibit the constitutive cAMP activity of GPR6 receptor expressed in CHO-K1 cells. CHO cells were stably expressed with GPR6 receptor, whose expression is controlled by a tetracycline inducible element. The cells were cultured in medium containing F12K, 10% FBS, 1% Penn/Strep, 200 ug/mL Hygromycin. GPR6 receptor expression was induced for 20 hrs with 10 µg/ml doxycycline (sigma D9891) in growth media. After addition of doxycycline cells were plated at a density of 250-500 cells per well in half-volume black clear bottom plates (Costar) and place in an incubator (37°, 5% C(O)2) for 20 hours prior to cAMP assays.Culture media was removed from cells and they were washed with […] of Ringer's Buffer (MgCl2 0.047 mg/mL, NaH2PO4 0.18 mg/mL, Na2HPO4 0.1 mg/mL, KCl 0.34 mg/mL, NaHC(O)3 1.26 mg/mL, D-glucose 1.8 mg/mL, NaCl 7 mg/mL; pH=7.4). Compounds suspended in DMSO were diluted in Ringer's Buffer containing 0.5% fatty acid free BSA and incubated on cells for 45 min at 37° and 5% C(O)2. After incubation cells were incubated for 10 min at room temp with Eu-cAMP tracer solution from a Perkin Elmer Lance HTRF UltracAMP assay kit (TRF0264).

Sequence of G-protein coupled receptor 6 (P46095 whole entry): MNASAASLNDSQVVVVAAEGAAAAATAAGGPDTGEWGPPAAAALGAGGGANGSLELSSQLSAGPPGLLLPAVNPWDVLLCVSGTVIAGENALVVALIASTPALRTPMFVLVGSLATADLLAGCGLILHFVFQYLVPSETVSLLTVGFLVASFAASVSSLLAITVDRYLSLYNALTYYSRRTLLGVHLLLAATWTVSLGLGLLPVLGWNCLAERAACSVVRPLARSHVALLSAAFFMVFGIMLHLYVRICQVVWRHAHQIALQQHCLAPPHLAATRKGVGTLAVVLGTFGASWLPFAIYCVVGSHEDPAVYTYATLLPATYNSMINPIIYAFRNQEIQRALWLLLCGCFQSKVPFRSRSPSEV

EC50: 62.5 µM
SMILES: CC(C)Nc1nc(COCCN(C)C)c(C#N)nc1N1CCN(Cc2ccc(F)cc2F)CC1
